This is an account of results in article PMC10983001, “Development of Cytotoxic GW7604-Zeise’s Salt Conjugates as Multitarget Compounds with Selectivity for Estrogen Receptor- Positive Tumor Cells” (Journal of Medicinal Chemistry, 2024).

One data set in a line: Water solubility. The data set is classed as physicochemical.
The nature of data set [1]: Stability in organic solutions (1H NMR). The data set is classed as physicochemical. As to conditions: DMSO-d6, measured after 5 min / immediately after dissolution. How it is done: Furthermore, it needs to be clarified whether organic solvent molecules are capable of ligand exchange reactions at the PtCl3 unit and form corresponding reaction/degradation products of the GW7604-Alk-PtCl3 complexes. Therefore, ^1H NMR experiments were performed with noncoordinating [e.g., acetone-d6, methanol-d4] and coordinating [e.g., acetonitrile-d3 , DMF-d7, dimethyl sulfoxide-d6 (DMSO-d6)] solvents. It should further be assessed whether the solvents are suitable for preparing stock solutions for structural characterization or in vitro testing.
The solutions (concentrations of 4.5–5.0 mM) were stored in NMR tubes at room temperature (rt) after being purged with argon.

The subject of the next data set is TSA-201 cells. Kind of data set: MTT assay of metabolic activity, noncancerous TSA-201. The data set is classed as cell-based, human. As to conditions: 72 h, MTT; read-out: IC50 TSA-210. How it is done: (§1) The GW7604-Alk-PtCl3 complexes (with exclusion of GW7604-Prop-PtCl3) were investigated for cytotoxic effects in SKBr3 (ER-negative, COX-2-positive, Figure 6), MCF-7 (ERα-positive, COX-negative, Figure 6), and noncancerous TSA-201 (human embryonal kidney) cells at concentrations of 10–30 μM using an established MTT (3-(4,5-dimethylthiazol-2-yl)-2,5-diphenyltetrazolium bromide) assay.[60],[69]
(§2) After incubation for 72 h, the amounts of surviving, metabolically active cells were quantified based on their ability to transform the water-soluble yellow dye MTT to a purple formazan, which can be analyzed by UV–vis spectroscopy.
(§3) The exponentially growing cells were seeded at a density of 1750 (MCF-7), 2000 (SKBr3), and 1250 (TSA-201) cells/well into clear flat-bottom 96-well plates in triplicate. Following 24 h of incubation at 37 °C in a humidified atmosphere (5% CO2/95% air), the compounds [freshly prepared stock solutions in DMF, diluted with DMEM to the desired concentration (final DMF concentration of 0.1% (v/v))] were added to reach the indicated concentrations. After another 72 h of incubation, the cellular metabolic activity was measured employing an MTT assay. By adding predissolved MTT reagent in PBS at a final concentration of 0.5 mg/mL, the metabolic activity can be determined via an enzymatic conversion to a purple formazan salt. After 3 h, the medium was aspirated, and 200 μL of DMSO was added to dissolve the formed formazan crystals. The absorbance was measured at 570 and 690 nm (turbidity assessment) using an EnSpire plate reader (PerkinElmer, Waltham, MA, USA). Solvent-treated cells without a compound served as the positive control. Metabolic activity was calculated by the following equation [drawing 1]
For orientation: Tetrazolium assays rely on reduction of a dye to a coloured formazan, in cell work by metabolically active cells.

The subject of another data set is SKBr3 cells. Briefly: MTT assay of metabolic activity, SKBr3. Format: cell-based, human. The note with it: 72 h, MTT. How it is done: as §1, §2, §3
The test system of a further data set is COX-1. Set-up: method as in PMID 29848978. The note with it: 10 μM, incubation time 10 min; cited from earlier work.
A further data set concerns the target T1, human recombinant COX-2 (Homo sapiens, UniProt P35354).
T1 construct: purchased Cayman Chemicals
T1 sequence (P35354 18-604): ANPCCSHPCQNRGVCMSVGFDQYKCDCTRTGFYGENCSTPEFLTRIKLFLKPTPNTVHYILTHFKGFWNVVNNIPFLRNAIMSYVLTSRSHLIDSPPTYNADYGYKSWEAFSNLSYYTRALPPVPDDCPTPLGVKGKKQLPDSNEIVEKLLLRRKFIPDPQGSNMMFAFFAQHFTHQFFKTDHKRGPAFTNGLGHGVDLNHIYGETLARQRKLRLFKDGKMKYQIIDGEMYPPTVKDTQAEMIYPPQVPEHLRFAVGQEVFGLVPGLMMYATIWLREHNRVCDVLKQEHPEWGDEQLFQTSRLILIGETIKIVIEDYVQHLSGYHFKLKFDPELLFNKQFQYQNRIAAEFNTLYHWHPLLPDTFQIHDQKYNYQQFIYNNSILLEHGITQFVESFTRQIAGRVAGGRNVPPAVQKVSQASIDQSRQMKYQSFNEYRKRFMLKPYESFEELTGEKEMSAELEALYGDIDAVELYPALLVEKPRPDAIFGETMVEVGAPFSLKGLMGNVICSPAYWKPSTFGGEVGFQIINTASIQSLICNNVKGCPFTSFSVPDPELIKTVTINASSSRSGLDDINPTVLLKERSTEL
Format: biochemical. As to conditions: 20 μM, incubation 10 min. Here is the method:
(§4) COX-1/2 inhibition was evaluated in an established assay on isolated isoenzymes. After incubation with the drugs (concentration: 20 μM) for 10 min, the remaining COX activity was measured by an enzyme-linked immunosorbent assay (ELISA).
(§5) The incubation time of the compounds with the respective isoenzymes was exactly 10 min. The results are presented as the mean ± SEM of three independent experiments, with two replicates of each experiment. […] Graphs were drawn using GraphPad Prism 8.0.

In a further data set the target is T2, human recombinant COX-1 (Homo sapiens, UniProt P23219).
T2 construct: purchased Cayman Chemicals
The data set is classed as biochemical. The note with it: 20 μM, incubation 10 min. Here is the method: as §4, §5

For the next data set, the system named is COX-2. Further details: method as in PMID 29848978. As to conditions: comparable concentration (10 μM); cited from earlier work.
In the next data set the test system is tumor cells. Set-up: method as in PMID 25604474. As to conditions: cited from earlier work.
In a further data set the test system is MCF-7 cells. Briefly: MTT assay of metabolic activity, MCF-7. Format: cell-based, human. As to conditions: 72 h, MTT; read-out: IC50 MCF-7. How it is done:
as §1, §2, §3

T2 sequence (P23219 24-599): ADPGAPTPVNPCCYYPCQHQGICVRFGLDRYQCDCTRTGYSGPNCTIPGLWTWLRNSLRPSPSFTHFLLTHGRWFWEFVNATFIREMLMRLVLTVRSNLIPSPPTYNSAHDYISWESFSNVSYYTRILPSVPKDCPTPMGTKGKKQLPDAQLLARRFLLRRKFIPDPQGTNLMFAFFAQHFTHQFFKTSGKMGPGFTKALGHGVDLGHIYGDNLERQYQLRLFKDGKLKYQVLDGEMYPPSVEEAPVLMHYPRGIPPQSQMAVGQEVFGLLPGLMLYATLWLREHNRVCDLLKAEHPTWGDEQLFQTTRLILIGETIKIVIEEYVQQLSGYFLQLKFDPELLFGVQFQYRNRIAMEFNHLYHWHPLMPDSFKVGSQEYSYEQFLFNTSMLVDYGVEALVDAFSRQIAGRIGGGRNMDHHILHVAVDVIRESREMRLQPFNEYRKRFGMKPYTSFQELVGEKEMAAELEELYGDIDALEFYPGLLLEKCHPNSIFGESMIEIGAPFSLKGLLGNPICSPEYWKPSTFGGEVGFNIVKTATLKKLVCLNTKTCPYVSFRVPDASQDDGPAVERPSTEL

In the case of “Potassium trichlorido[η^2-(prop-2-en-1-yl (E)-3-(4-((E/Z)-1-(4-hydroxyphenyl)-2-phenylbut-1-en-1-yl)phenyl)acrylate)]platinate(II) [GW7604-Prop-PtCl3]”, the water solubility result in the data set “Water solubility” is given as “does not have sufficient water solubility”.
As to `C=C.O.[Cl][Pt-]([Cl])[Cl].[K+]` [Zeise’s salt, K[PtCl3(C2H4)]], the “stability in DMSO-d6” value in data set [1] is “gas bubbling occurred from the released ethylene”. Also, the half-maximal inhibitory concentration (IC50) in the data set on TSA-201 cells, in the data set on SKBr3 cells and in the data set with MCF-7 cells was above 20 µM in each case. The COX-1 inhibition in the data set with COX-1 is on record as 100%. The “% COX-2 inhibition” value at human recombinant COX-2 turned out to be 0%. Further, the “% COX-1 inhibition” value on human recombinant COX-1 was 83%. Further, the COX-2 inhibition result in the data set on COX-2 is “inactive”. Also, in the data set with tumor cells, the “cytotoxicity against tumor cells in vitro” value was “no cytotoxicity”.

The IC50 is the concentration that inhibits the measured activity by half.
